From patent US20040229898A1, “Cyclic bis-compounds clearing malformed proteins” (priority 2001, published 2004)
Entries after “also recorded” stand apart in the source; their conditions may differ. Like-named read-outs stand apart in the source and are kept apart here.

Tests used:
[1] = tested on: N2a cells; assay: Cell viability assay (MTT) in uninfected N2a cells; type: cell-based, mouse; details: for % Cell Viability (±SEM) 50 nM / % Cell Viability (±SEM) 200 nM / % Cell Viability (±SEM) 500 nM: seven days, N2a, MTT, versus untreated control; for % Cell Viability (±SEM) 500 nM / Cytotoxicity for uninfected neuroblastoma (N2a) cells, in words: 500 nM
Protocol: Uninfected N2a cells were identically seeded onto six-well plates containing MEM (3 mL, supplemented as above). […] Medium was exchanged, together with the compound, every three days. After seven days, thiazolyl blue (300 μL, MTT, 3-[4,5-dimethylthiazol-2-yl]-2,5-diphenyltetrazolium bromide, Sigma-Aldrich) in PBS (5 mgmL^−1), previously sterile filtered, was added. Cells were incubated at 37° C. for 5 h. The medium was removed, and DMSO (3 mL) was added and repeatedly aspirated to solubilize the converted dye.

[2] = target: PrP^Sc in ScGT1 cells (Mus musculus, UniProt P04925); type: cell-based
Sequence of PrP^Sc in ScGT1 cells (P04925 23-230 limits assumed): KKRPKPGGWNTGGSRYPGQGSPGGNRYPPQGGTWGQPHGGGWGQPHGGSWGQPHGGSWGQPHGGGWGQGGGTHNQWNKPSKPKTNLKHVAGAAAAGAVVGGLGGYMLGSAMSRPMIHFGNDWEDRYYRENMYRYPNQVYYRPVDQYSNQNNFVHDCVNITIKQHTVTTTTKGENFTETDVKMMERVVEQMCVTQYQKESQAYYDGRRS

[3] = tested on: MRC-5 fibroblast cells; details: cited from earlier work
[4] = tested on: neuroblastoma cells; details: mouse
[5] = patients, cited from earlier work

Row | Compound | % Cell Viability (±SEM) 50 nM [1] | % Cell Viability (±SEM) 200 nM [1] | % Cell Viability (±SEM) 500 nM [1] | also measured
1 | COc1ccc2nc3cc(Cl)ccc3c(NCCCCNc3c4ccc(Cl)cc4nc4ccc(OC)cc34)c2c1 [Compound 1] | 100(±9) % | 100(±9) % | 100(±6) % | 
2 | COc1ccc2nc3cc(Cl)ccc3c(NCCCCCCNc3c4ccc(Cl)cc4nc4ccc(OC)cc34)c2c1 [Compound 2] | 90(±3) % | 96(±3) % | 82(±3) % | 
3 | COc1ccc2nc3cc(Cl)ccc3c(NCCCCCCCCNc3c4ccc(Cl)cc4nc4ccc(OC)cc34)c2c1 [Compound 3] | 100(±4) % | 100(±2) % | 97(±6) % | 
4 | COc1ccc2nc3cc(Cl)ccc3c(NCCCCCCCCCCNc3c4ccc(Cl)cc4nc4ccc(OC)cc34)c2c1 [Compound 4] | 99(±21) % | 95(±21) % | 90(±17) % | 
5 | COc1ccc2nc3cc(Cl)ccc3c(NCCNCCNc3c4ccc(Cl)cc4nc4ccc(OC)cc34)c2c1 [Compound 5] | 100(±20) % | 100(±9) % | 100(±18) % | 
6 | COc1ccc2nc3cc(Cl)ccc3c(NCCCNCCCNc3c4ccc(Cl)cc4nc4ccc(OC)cc34)c2c1 [Compound 6] | 98(±5) % | 33(±1) % | 1(±1) % | 
7 | COc1ccc2nc3cc(Cl)ccc3c(NCCNCCCNCCNc3c4ccc(Cl)cc4nc4ccc(OC)cc34)c2c1 [Compound 8] | 100(±13) % | 23(±10) % | 1(±1) % | 
8 | COc1ccc2nc3cc(Cl)ccc3c(NCCCNCCCNCCCNc3c4ccc(Cl)cc4nc4ccc(OC)cc34)c2c1.Cl [Compound 9] | 92(±7) % | 16(±7) % | 10(±2) % | 
9 | COc1ccc2nc3cc(Cl)ccc3c(NCCCN3CCN(CCCNc4c5ccc(Cl)cc5nc5ccc(OC)cc45)CC3)c2c1 [Compound 11, (6-chloro-2-methoxy-acridin-9-yl)-(3-{4-[3-(6-chloro-2-methoxy-acridin-9-ylamino)-propyl]-piperazin-1-yl}-propyl)-amine] | 94(±11) % | 89(±9) % | 79(±1) % | Cytotoxicity for uninfected neuroblastoma (N2a) cells, in words [1]: not cytotoxic; reduction of PrP^Sc in ScGT1 cells, in words ([2]; 100 nM to 500 nM, Western blot): dose-dependent manner; curing of ScGT1 cells after one-week incubation ([2]; 0.5 μM or 1.0 μM, one week): could be cured of PrP^Sc; also recorded: absence of PK-resistant PrP; re-infection of cured ScGT1 cells with prion inoculum ([2]; cured cells incubated with prion inoculum): could subsequently be re-infected; also recorded: decrease the capacity of ScGT1 cells to be re-infected; also recorded: PrP^Sc was detected; cytotoxicity to MRC-5 fibroblast cells versus non-constrained polyamine-linked bis-acridines (e.g., 7) [3]: less cytotoxic
10 | COc1ccc2nc3cc(Cl)ccc3c(NCCOCCOCCNc3c4ccc(Cl)cc4nc4ccc(OC)cc34)c2c1 [Compound 13, N,N′-Bis-(6-chloro-2-methoxy-acridin-9-yl)-1,8-diamino-3,6-dioxaoctane] | 97(±8) % | 90(±9) % | 98(±11) % | Cytotoxicity for uninfected neuroblastoma (N2a) cells, in words [1]: not cytotoxic
11 | COc1ccc2nc3cc(Cl)ccc3c(NCCCN(C)CCCNc3c4ccc(Cl)cc4nc4ccc(OC)cc34)c2c1 [Compound 14] | 73(±2) % | 59(±8) % | 1(±1) % | 
12 | CCCN(CCCCNc1c2ccc(Cl)cc2nc2ccc(OC)cc12)CCCNc1c2ccc(Cl)cc2nc2ccc(OC)cc12 [Compound 15, N-(6-Chloro-2-methoxy-acridin-9-yl)-N′-[3-(6-chloro-2-methoxy-acridin-9-ylamino)-propyl]-N′-propyl-butane-1,4-diamine] | 100(±5) % | 77(±4) % | 0(±1) % | 
13 | COc1ccc2nc3cc(Cl)ccc3c(NCCCCN(CCCNc3c4ccc(Cl)cc4nc4ccc(OC)cc34)C(=O)[C@H](C)N)c2c1 [Compound 16] | 100(±22) % | 59(±13) % | 0(±1) % | 
14 | COc1ccc2nc3cc(Cl)ccc3c(NCCCCN(CCCNc3c4ccc(Cl)cc4nc4ccc(OC)cc34)C(=O)C(C)NC(=O)OC(C)(C)C)c2c1 (stereo not drawn) [Compound 17, (1-{[4-(6-chloro-2-methoxy-acridin-9-ylamino)-butyl]-[3-(6-chloro-2-methoxy-acridin-9-ylamino)-propyl]-carbamoyl}-ethyl)-carbamic acid tert-butyl ester] | 98(±12) % | 85(±6) % | 84(±3) % | Cytotoxicity for uninfected neuroblastoma (N2a) cells, in words [1]: not cytotoxic
15 | COc1ccc2nc3cc(Cl)ccc3c(NCCCCN(CCCNc3c4ccc(Cl)cc4nc4ccc(OC)cc34)C(=O)CNC(=O)[C@H](C)N)c2c1 [Compound 18] | 96(±4) % | 93(±1) % | 0(±1) % | 
16 | COc1ccc2nc3cc(Cl)ccc3c(NCCCCN(CCCNc3c4ccc(Cl)cc4nc4ccc(OC)cc34)C(=O)CNC(=O)[C@H](C)NC(=O)OC(C)(C)C)c2c1 [Compound 19] | 88(±18) % | 78(±13) % | 70(±12) % | 
17 | COc1ccc2nc3cc(Cl)ccc3c(NCCCCNCCCNc3c4ccc(Cl)cc4nc4ccc(OC)nc34)c2n1.Cl [Compound 20] | 100(±15) % | 100(±9) % | 88(±8) % | Cytotoxicity for uninfected neuroblastoma (N2a) cells, in words [1]: nontoxic
18 | COc1ccc2nc3cc(Cl)ccc3c(NCCCCCCCCNc3c4ccc(Cl)cc4nc4ccc(OC)nc34)c2n1 [Compound 21, N,N′-Bis-(7-chloro-2-methoxy-benzo[b][1,5]naphthyridin-10-yl)-octane-1,8-diamine] | 95(±3) % | 100(±6) % | 96(±5) % | melting point: 114 to 115 °C
19 | CN(C)CCCN1c2ccccc2Sc2ccc(Cl)cc21 [chlorpromazine] |  |  |  | decrease in cell population [4]: 50%
20 | CSc1ccc2c(c1)N(CCC1CCCCN1C)c1ccccc1S2 (stereo not drawn) [thioridazine] |  |  |  | brain concentration ([5]; 300 mg daily): 20 µM; brain concentration ([5]; daily oral dosage of 800 mg, post mortem brain samples): more than 80 μM
